Measured values reported in ChEMBL document CHEMBL1687856, “Oroidin inhibits the activity of the multidrug resistance target Pdr5p from yeast plasma membranes” (J Nat Prod, 2011).
Calls of active or inactive are those of the source. The calls are words filed in the database; no cut-off is given here.

Tests used:
[1] = system: Saccharomyces cerevisiae; assay: Inhibition of Pdrp5-mediated rhodamine 6G accumulation in Saccharomyces cerevisiae AD124567 at 20 uM after 2 hrs by fluorescence microscopic analysis
[2] = Inhibition of Pdr5p-dependent ATPase activity in Saccharomyces cerevisiae AD124567 assessed as release of inorganic phosphate after 60 mins […]
[3] = Inhibition of Pdr5p-dependent UTPase activity in Saccharomyces cerevisiae AD124567 assessed as release of inorganic phosphate after 60 mins […]
[4] = system: Saccharomyces cerevisiae; assay: Inhibition of Prdp5 in Saccharomyces cerevisiae AD124567 assessed as inhibition of glucose-dependent rhodamine 6G efflux after 13 mins by spectrofluorimetry in presence of 2-deoxyglucose treated for 30 mins before compound addition
[5] = system: Saccharomyces cerevisiae; assay: Antimicrobial activity against Pdrp5 overexpressing Saccharomyces cerevisiae AD124567 assessed as growth yield reduction at 200 uM after 48 hrs by chemosensitization assay; format: functional; details: AD124567, 48 h, read-out: GI
[6] = system: Saccharomyces cerevisiae; assay: Inhibition of Prdp5 in Saccharomyces cerevisiae AD124567 assessed as inhibition of glucose-dependent rhodamine 6G efflux after 13 mins at 200 uM by spectrofluorimetry in presence of 2-deoxyglucose treated for 30 mins before compound addition
[7] = system: Saccharomyces cerevisiae; assay: Antimicrobial activity against Saccharomyces cerevisiae AD124567 assessed as growth yield reduction at 200 uM after 48 hrs by chemosensitization assay; details: AD124567, 48 h, read-out: GI
[8] = system: Saccharomyces cerevisiae; assay: Inhibition of Prdp5 in Saccharomyces cerevisiae AD124567 assessed as inhibition of glucose-dependent rhodamine 6G efflux after 2 hrs at 100 uM by fluorescence microscopy

| Compound | inhibition [1] | IC50 [2] [µM] | IC50 [3] [µM] | inhibition [4] | inhibition of growth at 200 µM [5] [%] | inhibition [6] [%] | inhibition of growth at 200 µM [7] [%] | inhibition [8] |
| --- | --- | --- | --- | --- | --- | --- | --- | --- |
| C=CC[C@@H]1/C=C(\C)C[C@H](C)C[C@H](OC)[C@H]2O[C@@](O)(C(=O)C(=O)N3CCCC[C@H]3C(=O)O[C@H](/C(C)=C/[C@@H]3CC[C@@H](O)[C@H](OC)C3)[C@H](C)[C@@H](O)CC1=O)[C@H](C)C[C@@H]2OC | Active |  |  |  |  |  |  |  |
| Nc1ncc(/C=C/CNC(=O)c2cc(Br)c(Br)[nH]2)[nH]1 [OROIDIN] |  | 20 | 13 | Dose-dependent effect | 30 | 60 | 30 | Active |
